Some results are limits rather than exact numbers.

The test concerns the target T1, Angiotensin II (A II) receptor (Oryctolagus cuniculus, UniProt P34976).
T1 construct: tissue Pel-Freeze Biologicals; host or cells: rabbit aorta, membrane preparation (frozen aortae)
T1 sequence (P34976 1-359): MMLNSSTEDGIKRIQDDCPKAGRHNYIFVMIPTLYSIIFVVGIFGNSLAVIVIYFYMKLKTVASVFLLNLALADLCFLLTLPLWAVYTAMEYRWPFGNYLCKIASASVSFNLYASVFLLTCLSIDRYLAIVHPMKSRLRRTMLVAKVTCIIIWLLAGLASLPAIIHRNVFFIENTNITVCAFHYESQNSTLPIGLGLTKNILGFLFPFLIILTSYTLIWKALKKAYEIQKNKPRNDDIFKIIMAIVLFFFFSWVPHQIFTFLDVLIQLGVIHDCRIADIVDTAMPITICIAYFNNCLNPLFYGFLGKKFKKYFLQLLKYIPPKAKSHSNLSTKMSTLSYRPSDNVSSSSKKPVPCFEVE
Kind of test: Receptor binding assay using rabbit aortae membrane preparation ("IC50" assay; displacement of 125I-Sar1 Ile8-angiotensin II). Conditions: membrane preparation derived from rabbit aortae; 37° C., 90 minutes; read-out: inhibitory concentration (IC50) giving 50% displacement of the total specifically bound 125I-Sar1 Ile8-angiotensin II. The protocol:
This assay is also referred to herein as the "IC 50 "assay.
RECEPTOR BINDING ASSAY USING RABBIT AORTAE MEMBRANE PREPARATION
Three frozen rabbit aortae (obtained from Pel-Freeze Biologicals) were suspended in 5 mM Tris-0.25 M Sucrose, pH 7.4 buffer (50 ml) homogenized, and then centifuged. The mixture was filtered through a cheesecloth and the supernatant was centrifuged for 30 minutes at 20,000 rpm at 4° C. The pellet thus obtained was resuspended in 30 ml of 50 mM Tris-5 mM MgCl2 buffer containing 0.2% Bovine Serum Albumin and 0.2 mg/ml Bacitration and the suspension was used for 100 assay tubes. Samples tested for screening were done in duplicate. To the membrane preparation (0.25 ml) there was added ^125 I-Sar^1 Ile^8 -angiotensin II [obtained from New England Nuclear] (10 ul; 20,000 cpm) with or without the test sample and the mixture was incubated at 37° C. for 90 minutes. The mixture was then diluted with ice-cold 50 mM Tris-0.9% NaCl, pH 7.4 (4 ml) and filtered through a glass fiber filter (GF/B Whatman 2.4" diameter). The filter was soaked in scintillation cocktail (10 ml) and counted for radioactivity using Packard 2660 Tricarb liquid scintillation counter. […]

For `CCc1nc2c(C)cc(C)nc2n1Cc1ccc(-c2ccccc2-c2nnn([C@@H]3O[C@H](C(=O)O)[C@@H](O)[C@H](O)[C@H]3O)n2)cc1` [compound (I)], the IC50 is below 50 µM.

(Values after patent US5085992A, “Microbial transformation process for antihypertensive products” (Merck & Co., Inc., priority 1991, dated 1992).)
